Laboratory results as given in US10722563B2, “Prostate-specific tumor antigens and uses thereof” (SHENZHEN INNOVATION IMMUNOTECHNOLOGY CO., LTD., priority 2012, dated 2020).

Tests used:
Format in all cases: cell-based, human
[1] = test system: PBMCs of ten HLA-A2+ healthy subjects; assay: In vitro stimulation of peptide-specific T cells in PBMCs of healthy subjects, IFN-γ release by ELISA; details: for healthy subjects in which the peptide induced T cell responses: 10 HLA-A2+ healthy donors, IFN-γ ELISA after 2 weeks of peptide stimulation; for concentrations of IFN-γ in the supernatants: PBMCs stimulated 14 days with peptide 20 μg/mL, response to T2 cells pre-loaded with peptide 5 μg/mL
Description: (§1) Ten HLA-A2+ prostate cancer patients and ten HLA-A2+ healthy subjects were enrolled in this study after written informed consent was obtained. All protocols were approved by the Institutional Review Board (IRB) of Baylor College of Medicine before commencing studies. 20 mL of peripheral blood was obtained from each person, and peripheral blood mononuclear cells (PBMCs) were isolated by density gradient centrifugation using Lymphoprep (Nycomed Pharma AS; Oslo, Norway). The freshly isolated PBMCs were cryopreserved for later use in 1 mL freezing medium containing 90% FCS and 10% dimethyl sulfoxide (DMSO) at −140° C. The expression of HLA-A2 molecules on PBMCs obtained from cancer patients and healthy subjects was verified by flow cytometry with FITC-labeled HLA-A2 mAb BB7.2 (BD Pharmingen, San Diego, Calif., USA).
(§2) PBMCs (1×10^5 cells/well) from either healthy subjects or prostate cancer patients were incubated with standard peptide concentrations of 20 μg/mL per peptide in 96-well U-bottom microplates (BD, Franklin Lakes, N.J., USA) in 200 μL of T-cell medium (TCM), consisting of RPMI 1640 (Mediatech, Manassas, Va., USA), 10% human AB serum (Valley Biomedical, Winchester, USA), 50 μM of 2-mercaptoethanol, 100 U/mL of interleukin-2 (IL-2), and 0.1 mM MEM nonessential amino acid solution (Invitrogen, Grand Island, N.Y., USA). Half of the TCM was removed and replaced with fresh TCM containing peptides (20 μg/mL) every 5 days. After 14 days of culture, the cells were harvested and tested for their ability to produce IFN-γ in response to T2 cells (1×10^4 cells/well), which were pre-loaded with either PSGR peptide (5 μg/mL) or a control peptide (an irrelevant HL-A2 binding peptide: NLLTHVESL) as a negative control. After 18 hours of incubation, supernatants were collected, and IFN-γ release was determined by ELISA assay.
(§3) Cytokine release was measured by coating 96-well ELISA plates (Thermo Fisher Scientific; Rochester, N.Y., USA) with 1 μg/mL anti-human IFN-γ (Pierce Biotechnology; Rockford, Ill., USA) overnight at 4° C. The plate was washed six times with PBS containing 0.05% Tween-20 (wash solution) to remove unbound coating antibody, and blocked with 1% BSA/PBS at room temperature for 2 hrs. Afterwards, 50 μL supernatant was added to each well and incubated at room temperature for 1 hr, then 50 μL of 0.5 μg/mL biotinylated anti-human IFN-γ (Pierce Biotechnology; Rockford, Ill., USA) was added and plates were incubated for an additional 1 hr at room temperature. After incubation, plates were washed and incubated for 30 min with Poly-HRP-Streptavidin (Thermo Fisher Scientific; Rochester, N.Y., USA) diluted 1:5000 in PBS/1% BSA. Plates were washed and 100 μL of TMB substrate solution (Sigma-Aldrich Co.; St. Louis, Mo., USA) was added per well. The colorimetric reaction was stopped using 2N H2SO4 and plates were read at 450 nm using an ELISA plate reader.
To determine whether PSGR-reactive T cell precursors are present in healthy subjects, we obtained PBMCs from 10 HLA-A2+ healthy donors and stimulated them in vitro with each of the 21 PSGR-derived peptides containing HLA-A2-binding motif (Table 1). After 2 weeks of peptide stimulation, supernatants from peptide-stimulated T cells were analyzed by ELISA assay to detect IFN-γ release in response to T2 cells pulsed with or without corresponding peptides.

LNCaP cells = assay: Cytotoxicity of PSGR peptide-specific T cells by LDH assay against LNCaP; details: HLA-A2 positive, PSGR expressing LNCaP; T cells from healthy donors and patients; FIG. 2B
Description: The expression of PSGR mRNA in different cell lines was determined by RT-PCR (A). PSGR derived peptide-specific T cells were tested for cytotoxicity against both PC3 and LNCaP by the LDH assay (B). Data from B are plotted as means±SD. Results are representative of three independent experiments. *P<0.05, versus control.
Cells were stained with anti-CD8 and anti-IFN-γ, then analyzed on a FACScalibur machine (A). PSGR-derived peptide-specific T cells were co-incubated with LNCaP cells alone in medium, or with LNCaP cells in the presence of either anti-HLA-I mAb (W6/32), HLA-II mAb or a control mAb (anti-CD19 mAb). After 4 hours of incubation, the cytotoxicity against LNCaP was determined by the LDH assay (B). Data from B are plotted as means±SD. Results are representative of three independent experiments. *P<0.05, versus controls.
PSGR derived peptide-specific T cells were tested for cytotoxicity against both PC3 and LNCaP by a lactate dehydrogenase (LDH) assay (Promega; Madison, Wis., USA). The assay was performed in accordance with the manufacturer's instructions. LDH release was calculated based on the following formula: Cytotoxicity (%)=(Experimental−Effector Spontaneous−Target Spontaneous LDH release)/(Target Maximum−Target Spontaneous LDH release)×100.
Spontaneous release was determined by using the supernatant of the target cells alone or effector cells alone, and the maximum release was determined by using the supernatant of target cells incubated with a lysis solution included in LDH kit. To determine if T cell recognition is HLA-I restricted, anti-HLA-I, anti-HLA-II, or anti-CD19 mAb (all from ATCC, Manassas, Va., USA) were added into wells at the initiation of the culture.

[2] = test system: PBMCs of HLA-A2+ prostate cancer patients; assay: In vitro stimulation of peptide-specific T cells in PBMCs of prostate cancer patients, IFN-γ release by ELISA; details: PBMCs stimulated in vitro with peptide; for induction of peptide-specific CTLs from PBMCs of prostate cancer patients: Table 3
Description: as §1, §2, §3
Since peptide-specific T cells against PSGR3, PSGR4 and PSGR14 were found in more than 70% of healthy subjects, we reasoned that CTL precursors that recognize these 3 peptides may also be high in PBMCs of prostate cancer patients. To test our hypothesis, we examined whether these three peptide candidates can induce peptide-specific CTLs from the PBMCs of HLA-A2+ prostate cancer patients. PBMCs from prostate cancer patients were collected and stimulated in vitro with PSGR3, PSGR4 or PSGR14 peptides.

Sequence | healthy subjects in which the peptide induced T cell responses [1] | concentrations of IFN-γ in the supernatants ([1]; healthy subject #1) [pg/mL] | concentrations of IFN-γ in the supernatants ([1]; healthy subject #2) [pg/mL] | concentrations of IFN-γ in the supernatants ([1]; healthy subject #3) [pg/mL] | concentrations of IFN-γ in the supernatants ([1]; healthy subject #4) [pg/mL] | concentrations of IFN-γ in the supernatants ([1]; healthy subject #5) [pg/mL] | concentrations of IFN-γ in the supernatants ([1]; healthy subject #6) [pg/mL] | concentrations of IFN-γ in the supernatants ([1]; healthy subject #7) [pg/mL] | concentrations of IFN-γ in the supernatants ([1]; healthy subject #8) [pg/mL] | concentrations of IFN-γ in the supernatants ([1]; healthy subject #9) [pg/mL] | concentrations of IFN-γ in the supernatants ([1]; healthy subject #10) [pg/mL] | recognition and killing of LNCaP by peptide-specific T cells (LNCaP cells) | induction of peptide-specific CTLs from PBMCs of prostate cancer patients [2] | concentrations of IFN-γ in the supernatants ([2]; prostate cancer patient #2) [pg/mL] | concentrations of IFN-γ in the supernatants ([2]; prostate cancer patient #3) [pg/mL] | concentrations of IFN-γ in the supernatants ([2]; prostate cancer patient #12) [pg/mL] | concentrations of IFN-γ in the supernatants ([2]; prostate cancer patient #13) [pg/mL] | concentrations of IFN-γ in the supernatants ([2]; prostate cancer patient #14) [pg/mL] | concentrations of IFN-γ in the supernatants ([2]; prostate cancer patient #15) [pg/mL] | concentrations of IFN-γ in the supernatants ([2]; prostate cancer patient #16) [pg/mL] | other results
ILANIYLLV (PSGR3) | 7 out of 10 | 127 | 398 | 393 | 768 | 227 | 183 | 645 | 0 | 394 | 0 | could recognize and kill | indeed induced peptide-specific CTLs | 525 | 503 | 326 | 217 | 0 | 282 | 35 | concentrations of IFN-γ in the supernatants ([2]; prostate cancer patient #17): 156 pg/mL; concentrations of IFN-γ in the supernatants ([2]; prostate cancer patient #22): 103 pg/mL; concentrations of IFN-γ in the supernatants ([2]; prostate cancer patient #25): 22 pg/mL
VILANIYLLV (PSGR14) | 7 out of 10 | 471 | 0 | 115 | 0 | 124 | 296 | 843 | 0 | 346 | 854 | could recognize and kill | indeed induced peptide-specific CTLs | 344 | 116 | 272 | 23 | 0 | 24 | 0 | concentrations of IFN-γ in the supernatants ([2]; prostate cancer patient #17): 100 pg/mL; concentrations of IFN-γ in the supernatants ([2]; prostate cancer patient #22): 8 pg/mL; concentrations of IFN-γ in the supernatants ([2]; prostate cancer patient #25): 11 pg/mL
WLAFPLCSL (PSGR4) | 7 out of 10 | 302 | 152 | 457 | 0 | 407 | 226 | 847 | 0 | 0 | 459 | could recognize and kill | indeed induced peptide-specific CTLs | 451 | 351 | 0 | 301 | 309 | 70 | 6.7 | concentrations of IFN-γ in the supernatants ([2]; prostate cancer patient #17): 102 pg/mL; concentrations of IFN-γ in the supernatants ([2]; prostate cancer patient #22): 56 pg/mL; concentrations of IFN-γ in the supernatants ([2]; prostate cancer patient #25): 27 pg/mL
